Laboratory results published in patent US9487489B2, “Halogen-substituted pyrazole derivatives as pest-control agents” (BAYER CROPSCIENCE AKTIENGESELLSCHAFT, priority 2013, dated 2016).

Key:
[1] = test system: engorged adult female cattle ticks (Boophilus microplus); experiment: Boophilus microplus injection test (BOOPMI Inj); format: in vivo; conditions: application rate 20 μg/animal; injection into abdomen; assessed after 7 days
Outline: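 Efficacy is read at 7 days as fertile egg laying (100% = no fertile eggs laid; 0% = all eggs fertile), with eggs of unclear fertility stored until larvae hatch at about 42 days. Five engorged adult females per dose each receive an abdominal injection of 1 μl compound dissolved in DMSO.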

[2] = test system: L1 larvae of the Australian sheep blowfly (Lucilia cuprina); experiment: Lucilia cuprina test (LUCICU); format: in vivo; conditions: application rate 100 ppm; after 2 days
Outline: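 Percent mortality read at 2 days; 100% = all larvae killed, 0% = none. Test compound, predissolved in DMSO and water-diluted to the wanted level, was mixed into minced horsemeat holding roughly 20 first-instar larvae.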

[3] = test system: adult cat fleas (Ctenocephalides felis); experiment: Ctenocephalides felis oral test (CTECFE); format: in vivo; conditions: application rate 100 ppm in citrated cattle blood; after 2 days
Outline: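 Mortality read at 2 days as percent of fleas killed. Compound predissolved in DMSO, diluted into citrated cattle blood and offered to roughly 20 unfed adult C. felis via parafilm membrane feeder.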

[4] = test system: greenhouse red spider mite (Tetranychus urticae); experiment: Tetranychus urticae spray test, OP-resistant (TETRUR); format: in vivo; conditions: bean leaf discs, after 6 days
Outline: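 Percent kill, scored 6 days post-spray (0% = none dead, 100% = all dead), on Phaseolus vulgaris leaf discs infested with every life stage of the OP-resistant spider mite. Compound dissolved in acetone plus DMF, diluted to test concentration with emulsifier-containing water (1000 ppm).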

[5] = test system: larvae of the mustard beetle (Phaedon cochleariae); experiment: Phaedon cochleariae spray test (PHAECO); format: in vivo; conditions: Chinese cabbage leaf discs, after 7 days
Outline: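 Kill of mustard beetle larvae is read as % mortality 7 days after spraying. Spray liquid: active compound in acetone plus dimethylformamide, brought up with water holding 1000 ppm alkylaryl polyglycol ether emulsifier and diluted further in emulsifier-water.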

[6] = test system: adult dog ticks (Rhipicephalus sanguineus); experiment: Rhipicephalus sanguineus in vitro contact test with adult brown dog ticks (T2); conditions: after 48 h
Outline: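 Acetone solutions coated onto test tube walls and floor, giving 5 μg/cm^2 at 900 ppm. Five to ten adult ticks held per tube in the dark at room temperature for 48 h, then heated at 45-50° C for up to 5 min; efficacy is the percentage of dead or moribund ticks unable to climb away.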

[7] = test system: adult houseflies (Musca domestica); experiment: Musca domestica test (MUSCDO); format: in vivo; conditions: application rate 100 ppm; after 2 days
Outline: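 Groups of 10 adult Musca domestica exposed to a sugar-soaked sponge treated with the water-diluted DMSO preparation of compound at the chosen concentration. Percent kill read at day 2, where 0% means no flies killed and 100% all killed.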

[8] = test system: adult cat fleas (Ctenocephalides felis); experiment: Ctenocephalides felis in vitro contact test with adult cat fleas (T1); conditions: after 48 h
Outline: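 Adult cat fleas (Ctenocephalides felis), 5-10 per tube, were exposed to the inner surface of 25 ml test tubes coated with compound in acetone. Tubes were incubated lying flat under ambient conditions. Efficacy was then read by standing tubes upright and knocking the fleas to the floor. Fleas that stayed motionless or moved uncoordinatedly counted as dead or moribund, where 100% means all fleas dead or moribund and 0% means none harmed.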

[9] = test system: green peach aphid (Myzus persicae); experiment: Myzus persicae spray test (MYZUPE); format: in vivo; conditions: application rate 500 g/ha; Chinese cabbage leaf discs; after 6 days
Outline: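 Chinese cabbage leaf discs infested with all aphid stages sprayed with compound in acetone/DMF with alkylaryl polyglycol ether emulsifier in water. Efficacy (% aphids killed; 100% all dead, 0% none) scored after 6 days.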

[10] = test system: caterpillars of the armyworm (Spodoptera frugiperda); experiment: Spodoptera frugiperda spray test (SPODFR); format: in vivo; conditions: application rate 500 g/ha; maize leaf discs; after 7 days
Outline: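 Percent kill read at day 7 on caterpillar-infested maize leaf discs. Discs were first sprayed with aqueous emulsifier-containing (1000 ppm) preparations made from acetone/dimethylformamide solutions, and dried. Scale: 0% none dead, 100% all dead.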

[11] = test system: southern root-knot nematode (Meloidogyne incognita); experiment: Meloidogyne incognita test (MELGIN); format: in vivo; conditions: application rate 20 ppm; lettuce; after 14 days
Experimental: K. Meloidogyne incognita Test (MELGIN)
Solvent: 125.0 parts by weight of acetone
To prepare a suitable active compound preparation, 1 part by weight of active compound is mixed with the stated amount of solvent and the concentrate is diluted with water to the desired concentration.
Vessels are filled with sand, active compound solution, an egg/larvae suspension of the southern root-knot nematode (Meloidogyne incognita) and lettuce seeds. The lettuce seeds germinate and the plants develop. On the roots, galls are formed.
After 14 days, the nematicidal efficacy in % is determined by the formation of galls. 100% means that no galls have been found; 0% means that the number of galls on the treated plants corresponds to the untreated control.

[12] = test system: cattle ticks (Boophilus microplus) Parkhurst strain, SP-resistant; experiment: Boophilus microplus dip test (BOOPMI Dip); format: in vivo; conditions: application rate 100 ppm, assessed after 7 days
Outline: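 Adult engorged female SP-resistant Parkhurst ticks (8–10) were fully immersed in compound diluted in water from a DMSO solution, then kept in a climate-controlled room. After 7 days, fertile egg-laying was scored, with larval hatching checked at about 42 days; 100% efficacy means no fertile eggs.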

[13] = logP determination by HPLC on a reversed-phase column (C18), EEC Directive 79/831 Annex V.A8; format: physicochemical; conditions: HPLC on reversed-phase column (C18), acetonitrile/water with formic acid, EEC Directive 79/831 Annex V.A8
Outline: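 Per EEC 79/831 Annex V.A8, values derive from HPLC retention at 2.0 ml/min and 55° C on a 50*4.6 C18 column. The 10→95% acetonitrile gradient (0.1%/0.09% formic acid) lasted 4.25 min plus a 1.25 min hold; mass detection was by MSD.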

Row | SMILES | efficacy (laying of fertile eggs) [1] | efficacy (kill in %) [2] | efficacy (kill in %) [3] | efficacy in % ([4]; application rate 500 g/ha) | efficacy in % ([5]; application rate 500 g/ha) | efficacy (dead or moribund ticks) ([6]; application rate 1 μg/cm^2) | efficacy (dead or moribund ticks) ([6]; application rate 5 μg/cm^2) | efficacy (kill in %) [7] | efficacy (dead or moribund fleas) ([8]; application rate 1 μg/cm^2) | efficacy (dead or moribund fleas) ([8]; application rate 5 μg/cm^2) | efficacy in % [9] | efficacy in % [10] | nematicidal efficacy in % (formation of galls) [11] | efficacy (laying of fertile eggs) [12] | efficacy in % ([4]; application rate 100 g/ha) | efficacy in % ([5]; application rate 100 g/ha) | logP [13]
1 | CNC(=O)c1cc(-c2cnn(-c3c(C(F)(F)F)c(C(F)(F)C(F)(F)F)nn3C)c2)ccc1Cl [Ic-152] | 100% | 100% | 100% | 100% | 100% | 100% | 100% | 100% | 100% | 100% | 100% | 100% | 100% | 100% |  |  | 
2 | Cn1nc(C(F)(F)C(F)(F)F)c(C(F)(F)F)c1-n1cc(-c2ccc(Cl)c(C(=O)NCC(N)=O)c2)cn1 [Ic-156] | 90% |  | 100% | 100% | 100% |  |  |  |  |  | 90% | 100% | 90% |  |  |  | 
3 | CSCC1CCC1NC(=O)c1cc(-c2cnn(-c3c(C(F)(F)F)c(C(F)(F)C(F)(F)F)nn3C)c2)ccc1Cl (stereo not drawn) [Ic-120] |  |  |  |  |  |  |  |  |  |  |  |  | 90% |  | 100% | 83% | 4.56
4 | Cn1nc(C(F)(F)C(F)(F)F)c(C(F)(F)F)c1-n1cc(-c2ccc(Cl)c(C(=O)NS(C)(=O)=O)c2)cn1 [Ic-26] |  |  |  |  |  |  |  |  |  |  |  |  | 90% |  |  |  | 3.58
